Assay results from PMC6999911, “New 2-Ethylthio-4-methylaminoquinazoline derivatives inhibiting two subunits of cytochrome bc1 in Mycobacterium tuberculosis” (PLoS Pathogens, 2020).

Columns and labels:
Type in all cases: cell-based, Mycobacterium tuberculosis
QuinR mutant strains = tested on: QuinR mutant strains
[1] = tested on: QuinR-M1 (QcrA Leu356Val)
[2] = tested on: QuinR-M3 (QcrB Gly175Ser)
[3] = tested on: QuinR-M2 (QcrB Trp312Gly)
H37Rv-Rv1777(R145S) = tested on: H37Rv-Rv1777(R145S)
[4] = tested on: complemented mutant (ΔcydAB)
M. tb H37Rv ΔcydKO A317V = tested on: M. tb H37Rv ΔcydKO A317V

SMILES	ATP depletion in QuinR mutants (QuinR mutant strains)	fold-change MIC compared to H37Rv (QuinR-M1) [1]	fold-change MIC compared to H37Rv (QuinR-M3) [2]	fold-change MIC compared to H37Rv (QuinR-M2) [3]	fold change in the MIC, H37Rv-Rv1777(R145S) (H37Rv-Rv1777(R145S))	static or cidal activity by CFU enumeration [4]	basal respiration after compound addition (M. tb H37Rv ΔcydKO A317V)
COc1nc2ccc(Br)cc2cc1[C@@H](c1ccccc1)[C@@](O)(CCN(C)C)c1cccc2ccccc12 [BDQ]	Significant ATP depletion	–	–	–	–	–	–
CCSc1nc(NC)c2ccccc2n1 [Compound 11626141]	–	59 fold-change	92 fold-change	1489 fold-change	≤ 3 fold	–	–
CCNc1nc(SCC)nc2ccccc12 [Compound 11626142]	–	39 fold-change	34 fold-change	1111 fold-change	≤ 3 fold	–	–
CCSc1nc(NC)c2cccc(F)c2n1 [Compound 11626252]	low-level ATP depletion	25 fold-change	61 fold-change	1470 fold-change	≤ 3 fold	bacteriostatic effect is restored	did not cause a deviation in basal respiration
CCSc1nc(NC)c2ccc(F)c(F)c2n1 [Compound 11726148]	–	100 fold-change	142 fold-change	224 fold-change	–	–	–
CCc1nc2ccc(Cl)cn2c1C(=O)NCc1ccc(N2CCC(c3ccc(OC(F)(F)F)cc3)CC2)cc1 [Compound Q203, Telacebec, reference compound]	Significant ATP depletion	669 fold-change	191 fold-change	742 fold-change	–	–	–
Cc1c(OCC(F)(F)F)ccnc1CSc1nc2ccccc2[nH]1 [LPZs, lansoprazole sulfide, reference compound]	–	> 71 fold-change	1 fold-change	> 71 fold-change	–	–	–
